Measurements taken from the NIST ThermoML archive (doi:10.1021/je050366x).
Where “and” joins values, the source holds several entries; their conditions need not be identical. Equal values may be shown once.

Experiment: xn = mol fraction of the nth substance listed
Conditions: for surface tension liquid-gas: Ring tensiometer; for mass density: 100 kPa, Liquid

O=C(O)CCC(=O)O [butanedioic acid] + O
Conditions | mass density | surface tension liquid-gas
279.9 K, x1 = 0.00716 | – | 70 mN/m
280.1 K, x1 = 0.00716 | – | 69.2 mN/m
280.2 K, x1 = 0.00716 | – | 70.3 mN/m
280.6 K, x1 = 0.00716 | – | 70 mN/m
284 K, x1 = 0.00716 | – | 69 mN/m
284.3 K, x1 = 0.00716 | – | 69.7 mN/m
284.7 K, x1 = 0.00716 | – | 69.3 mN/m
284.8 K, x1 = 0.00716 | – | 69.5 mN/m
285 K, x1 = 0.00716 | – | 69.6 mN/m
288.4 K, x1 = 0.00716 | – | 68.6 mN/m
288.9 K, x1 = 0.00716 | – | 69 mN/m and 68.8 mN/m and 68.7 mN/m
292.6 K, x1 = 0.00716 | – | 67.8 mN/m
293.1 K, x1 = 0.00716 | – | 68.5 mN/m
293.3 K, x1 = 0.00716 | – | 68.2 mN/m
293.4 K, x1 = 0.00716 | – | 68.2 mN/m
293.6 K, x1 = 0.00716 | – | 68.4 mN/m
296.8 K, x1 = 0.00716 | – | 67.2 mN/m
297.4 K, x1 = 0.00716 | – | 67.7 mN/m
297.6 K, x1 = 0.00716 | – | 68 mN/m
297.8 K, x1 = 0.00716 | – | 67.8 mN/m
297.9 K, x1 = 0.00716 | – | 67.8 mN/m
298 K, x1 = 0.0011 | 991 kg/m3 | 70.9 mN/m
298 K, x1 = 0.0012 | 997 kg/m3 | –
298 K, x1 = 0.0022 | 993 kg/m3 and 1003 kg/m3 | 70 mN/m
298 K, x1 = 0.0028 | 996 kg/m3 | 69.8 mN/m
298 K, x1 = 0.0033 | 997 kg/m3 | 69.4 mN/m
298 K, x1 = 0.0037 | 1001 kg/m3 | –
298 K, x1 = 0.0045 | 998 kg/m3 | 68.9 mN/m
298 K, x1 = 0.0047 | 1002 kg/m3 | –
298 K, x1 = 0.0056 | 1001 kg/m3 | 68.5 mN/m
298 K, x1 = 0.0067 | 1002 kg/m3 | 68.1 mN/m
298 K, x1 = 0.0068 | 1008 kg/m3 | –
298 K, x1 = 0.0071 | – | 67.7 mN/m
298 K, x1 = 0.0078 | 1005 kg/m3 | 67.6 mN/m
298 K, x1 = 0.0089 | 1007 kg/m3 | 67.3 mN/m
298 K, x1 = 0.01 | 1009 kg/m3 | 66.6 mN/m
298 K, x1 = 0.0107 | – | 66.9 mN/m
298 K, x1 = 0.011 | 1010 kg/m3 | –
298 K, x1 = 0.0111 | – | 66.4 mN/m
298 K, x1 = 0.0117 | – | 66.7 mN/m
301.7 K, x1 = 0.00716 | – | 67.5 mN/m
301.8 K, x1 = 0.00716 | – | 67.1 mN/m
302.3 K, x1 = 0.00716 | – | 67.3 mN/m
302.9 K, x1 = 0.00716 | – | 67.1 mN/m
